Results published in patent publication US7029879B1, “Iodine uptake restoration in thyroid cancer” (University of Kentucky Research Foundation, priority 1999, dated 2006).

Assays:
[1] = test system: hNIS gene regions P (promoter), L (leader), C (coding); experiment: Methylation-specific PCR of hNIS gene regions in treated cell lines; type: cell-based, human; as to Methylation Status by Region P: key: mRNA expression (hNIS, TTF-1, Pax-8): +, positive; −, negative
Description: (§1) Cell lines, for evaluation of iodide-uptake and hNIS expression, were grown in phenol-red-free RPMI 1640 with 5% fetal bovine serum (FBS), 100 nM sodium selenite and 0.1 nM bovine TSH (basal medium) (20). They were plated at a density of 3–5×10^4 cells/9.4 cm^2, in triplicate in basal medium, and grown for 2–3 days at 37° C. in 5% CO2. They were treated with dimethylsulfoxide (DMSO, 25 μM daily for 3 days), sodium butyrate (0.5 or 1.0 mM), phenylacetate (pH 7.0, 5 or 10 mM) or 5-azacytidine (0.5 or 1.0 μM, in 25 μM DMSO, daily for 3 days) until control cells were 80% confluent (3–4 days), then changed to fresh basal medium and grown for an additional 24 hrs.
This method utilizes PCR primer pairs to distinguish methylated from unmethylated DNA in bisulfite-modified target DNA, in which bisulfite converts unmethylated cytosines to uracil (23,24). Genomic DNAs, from normal and tumoral human thyroid tissues and cell lines, were isolated by standard techniques (21) and 1.0 μg aliquots were denatured by NaOH (10 min at 37° C.), then treated with 10 mM hydroquinone and 3.0 M sodium bisulfite (pH 5.0 under mineral oil for 16 hrs at 50° C.). Modified DNA was purified on a resin column (Qiagen) and further treated with 0.3 N NaOH for 5 min prior to ethanol precipitation. The PCR mixture contained 16.6 mM ammonium sulfate, 67 mM Tris-HCl (pH 8.8), 6.7 mM MgCl2, 10 mM β-mercaptoethanol, 1.25 mM dNTPs, 0.2 μL TaqStart antibody, 1 U AmpliTaq DNA polymerase, 10 pmoles each of sense and antisense methylation-specific primers, and […] of bisulphite-modified DNA target. Primers used for analysis of the hNIS promoter CpG island methylation were selected for cytosine-rich regions, containing CpG dinucleotides near the 3′ end of the primers, hNIS-MET-P (sense, 5′ to 3′, TTAGGTTTGGAGGCGGA GTCGC (SEQ ID NO. 7) and antisense, 5′ to 3′, ACCGACTATCTATCCCT CTCCCTAAACG) (SEQ ID NO. 8) for a 143 bp product from methylated DNA and hNIS-UNMET-P (sense, 5′ to 3′, […] GAGTTGT (SEQ ID NO. 9) and antisense, 5′ to 3′, […] CCTAAACA) (SEQ ID NO. 10) for a 151 bp product from unmethylated genomic DNA. Additional sets of primers were similarly designed to analyze further downstream elements. They were: hNIS-MET-L (sense, […] (SEQ ID NO. 11) and antisense, GACCT CCATAAAAACGAATACG) (SEQ ID NO. 12) for a 265 bp product, with hNIS-UNMET-L (sense, […] (SEQ ID NO. 13), and antisense, […]) (SEQ ID NO. 14), for a 275 bp product, hNIS-MET-C (sense, […] (SEQ ID NO. 15) and antisense, […]) (SEQ ID NO. 16) for a 242 bp product, and hNIS-UNMET-C (sense, […] (SEQ ID NO. 17), and antisense, […]) (SEQ ID NO. 18), for a 252 bp product. The amplification conditions were: Taq polymerase activation at 95° C. for 5 min, 40 cycles of: denaturation at 94° C. for 20 s, annealing at 60° C. for 30 s and polymerization at 72° C. for 30 s. MS-PCR products were resolved by agarose gel electrophoresis and visualized by ethidium bromide staining and UV transillumination.

[2] = test system: NPA'87 cells (papillary carcinoma); experiment: Iodide uptake assay (specific 125I uptake), NPA'87; type: cell-based, human; conditions: for Specific ^125I Uptake: NPA'87
Description: as §1
Cell lines, treated with differentiation agents and control cultures, were washed with 2 mL of buffer containing: 10 mM HEPES ([…]), 5.5 mM glucose, 5.4 mM KCl, 1.3 mM CaCl2, 0.4 mM Na2HPO4, 0.44 mM KH2PO4, and either 137 mM NaCl (Buffer A) or 100 mM choline chloride (Buffer B). After a 60 min incubation in the same buffer supplemented with Na(^125I) (1.0 μCi/2 mL) and 1.0 μM NaI, cells were washed once with Buffer A, lysed with 0.1 M NaOH and gamma counted (5). A parallel set of dishes, similarly plated and treated, were used for normalization of uptake activity, using 3-(4,5-dimethylthiazol-2-yl)-2,5-diphenyltetrazolium bromide (MTT) assay (25) as an index of cell viability. Gamma counts of cells incubated in Buffer B were subtracted from counts of cells incubated in Buffer A, under corresponding conditions, to account for non-specific binding of radioiodide.

[3] = KAT-5, high: AzaC 1.0 μM, PhAc 10 mM
[4] = NPA'87, high: AzaC 1.0 μM, NaB 1.0 mM
[5] = high: AzaC 1.0 μM, NaB 1.0 mM, PhAc 10 mM
[6] = low: AzaC 0.5 μM, NaB 0.5 mM, PhAc 5.0 mM

Nc1ncn([C@@H]2O[C@H](CO)[C@@H](O)[C@H]2O)c(=O)n1 [AzaC, 5-azacytidine]
methylation at the L and C regions after treatment ([1]; KAK-1, KAT-5, KAT-10 and NPA'87 (all four cell lines)): decreased methylation
Methylation Status by Region C ([1]; KAK-1, high: AzaC 1.0 μM): −
Methylation Status by Region L ([1]; KAK-1, high: AzaC 1.0 μM): −
Methylation Status by Region P ([1]; KAK-1, high: AzaC 1.0 μM): −
Methylation Status by Region C ([1]; KAK-1, low: AzaC 0.5 μM): −
Methylation Status by Region L ([1]; KAK-1, low: AzaC 0.5 μM): −
Methylation Status by Region P ([1]; KAK-1, low: AzaC 0.5 μM): −
Methylation Status by Region C [1, 3]: −
Methylation Status by Region L [1, 3]: −
Methylation Status by Region P [1, 3]: −
susceptibility to demethylation effects in the C region ([1]; KAT-5 and KAT-10 cells, C region compared with L region): less than that of the L region
Methylation Status by Region C ([1]; KAT-10, low: AzaC 0.5 μM): −
Methylation Status by Region L ([1]; KAT-10, low: AzaC 0.5 μM): −
Methylation Status by Region P ([1]; KAT-10, low: AzaC 0.5 μM): −
effect on methylation status of the P region ([1]; MRO87, WRO82 and KAT-7): did not affect the baseline demethylated status
demethylation of region C in response to treatment ([1]; MRO87, WRO82 and KAT-7, except minimal unmethylated product for WRO82): did not become demethylated
Methylation Status by Region C [1, 4]: −
Methylation Status by Region L [1, 4]: −
Methylation Status by Region P [1, 4]: −
Specific ^125I Uptake [2, 5]: +
Specific ^125I Uptake [2, 6]: −
increased iodide uptake ([2]; NPA'87 cells, 1.0 M 5-azacytidine (so in the source)): over 15 fold

CCCC(=O)[O-].[Na+] [NaB, sodium butyrate]
Methylation Status by Region C ([1]; KAT-10, high: NaB 1.0 mM): +
Methylation Status by Region L ([1]; KAT-10, high: NaB 1.0 mM): +
Methylation Status by Region P ([1]; KAT-10, high: NaB 1.0 mM): −
Methylation Status by Region C [1, 4]: +
Methylation Status by Region L [1, 4]: +
Methylation Status by Region P [1, 4]: −
effect on baseline methylation patterns in all three regions ([1]; NPA'87 and KAT-10): failed to demonstrate effects on altering baseline methylation patterns
Specific ^125I Uptake [2, 5]: −
Specific ^125I Uptake [2, 6]: −
iodide uptake activity ([2]; NPA'87 cells, 1.0 mM sodium butyrate): slightly increased
